In patent publication US8026237B2, “Pyrrole derivatives as pharmaceutical agents” (Exelixis, Inc., priority 2004, dated 2011):
≈ marks a conversion by molar mass, not a printed value.

test system: not listed separately; test: Kinetic solubility assay; settings: pH 7.4, aqueous buffer, kinetic from dmso stock
Method: The kinetic solubility of test compounds in buffer was evaluated using a 96 well filtration plate format. A 500 μM assay solution in PBS, pH7.4 (or other assay buffer, as needed) was generated form a DMSO stock solution (up to 10 mM). Samples were transferred to a 96 Millipore MultiScreen HTS 96-well Filter plate (Cat# MSSLBPC10) mixed by shaking for 1.5 hours and processed by filtration prior to quantitation by HPLC-UV. Amiodarone and testosterone were used as reference controls.

Structure (SMILES) | solubility kinetic at 1.5 h [µM]
C[C@]12CC[C@H]3[C@@H](CCC4=CC(=O)CC[C@@]43C)[C@@H]1CC[C@@H]2O [testosterone] | ~330 (≈ 95.2 µg/mL)

target: T1, human MR (GAL4-MR chimera, amino acids 671 to 984) (Homo sapiens, UniProt P08235); test: GAL4-MR cell based assay (antagonist format); settings: not given
T1 construct: expressed in transfected cells; host or cells: CV-1 (African Green Monkey Kidney Cells)
T1 sequence (P08235 671-984): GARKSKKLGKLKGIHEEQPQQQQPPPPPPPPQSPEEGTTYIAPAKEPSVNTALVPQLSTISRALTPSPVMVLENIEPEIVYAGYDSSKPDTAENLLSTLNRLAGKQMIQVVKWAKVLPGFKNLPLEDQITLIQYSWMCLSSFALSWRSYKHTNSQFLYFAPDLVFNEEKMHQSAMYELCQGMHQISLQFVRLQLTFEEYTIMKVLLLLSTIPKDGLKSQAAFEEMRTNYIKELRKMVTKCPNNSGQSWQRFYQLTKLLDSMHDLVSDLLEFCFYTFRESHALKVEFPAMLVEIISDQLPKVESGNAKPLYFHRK
Method: Compound activity was determined in a cell-based assay using a GAL4-MR chimera to identify compounds with the ability to modulate MR activity.
The pCMX-GAL4-MR expression plasmid was constructed by cloning nucleotides encoding amino acids 671 to 984 of human MR (see GenBank sequence AAA59571) into the vector pCMX-GAL4 (Perlmann et al., 1993,Genes & Development 7:1411-1422) comprising nucleotides encoding for amino acids 1-147 of the GAL4 DNA binding domain.
The TK-MH100x4-Luc (GAL4UAS-TK-Luciferase) reporter construct was constructed by insertion of four copies of the Gal4 UAS (Kang et al. 1993, J. Biol. Chem. 268:9629-9635) into the Hind III site of TK-Luc. The parental plasmid, TK-Luc, was prepared by insertion of the Herpes simplex virus thymidine kinase gene promoter (−105 to +51) obtained from the plasmid pBLCAT2 by digestion with HindIII and XhoI (described in Luckow et al., 1987, Nuc. Acid. Res. 15:5490) into the plasmid MMTV-LUC described by Hollenberg and Evans, 1988, Cell 55:899-906) after removal of MMTV-LTR promoter sequence from MMTV-LUC via digestion with HindIII and XhoI. Correct cloning was confirmed by restriction digestion and/or sequencing.
Assays were performed using CV-1 (African Green Monkey Kidney Cells) (ATCC) cells grown in T175 flasks at a density of 3×10^6 cells/flask in DMEM with 5% FBS. Cells were transfected one day after plating at 70-80 percent confluency with a DNA mixture containing (per T175 flask) 9 μg pCMX-GAL4-MR, 9 μg TK-MH100x4-Luc, and 2 μg pCMX β-Gal using the transfection reagent FuGENE6 (Roche Molecular Biochemicals, Indianapolis, Ind.) following recommended protocols and instructions provided by the manufacturer, and incubated with transfection reagents for 5 hours at 37° C.
Transfected cells were trypsinized, resuspended in media, and 45 μL was added to assay plates at a density of approximately 5,000 cells/well using a MultiDrop dispenser (MTX Lab Systems, Inc., VA). The assay plates containing both compounds and screening cells were incubated for approximately 20 hours at 37° C. and 5% CO2 in a tissue culture incubator.
After incubation of the transfected cells with compounds, Lysis buffer (1% Triton X-100, 10% Glycerol, 5 mM DTT, 1 mM EGTA, 25 mM Tricine, pH 7.8) and Luciferin assay buffer (0.73 mM ATP, 22.3 mM Tricine, 0.11 mM EDTA, 33.3 mM DTT, 0.2M MgSO4, 11 mM Luciferin, 6.1 mM Coenzyme A, 0.01 mM HEPES, pH 7.8) were prepared. Media was removed from the plates and lysis buffer and luciferin assay buffer mixed in a 1:1 ratio and then 30 μl of the mixture was added to each well using a Multidrop dispenser. Plates were read on the Northstar (Applied Biosystems, Foster City, Calif.) and data was analyzed using ActivityBase (ID Business Solutions, Ltd., Guildford, Surrey, UK). If required, luciferase values may be normalized for transfection efficiency by measuring β-galactosidase activity based on expression from the pCMX-Gal expression plasmid as described previously (Willy et al., 1995, Gene & Development, 9:1033-1045).

Structure (SMILES) | IC50 [nM]
Cc1cc(C(=O)NCc2ccc(Oc3ccccc3)cc2)c(C)n1-c1ccccc1C(F)(F)F [2,5-dimethyl-1-(2-trifluoromethyl-phenyl)-1H-pyrrole-3-carboxylic acid 4-phenoxy-benzylamide] | 1000 to 5000
Cc1cc(C(=O)Nc2cc(C(F)(F)F)ccc2F)c(C)n1-c1ccccc1C(F)(F)F [2,5-dimethyl-1-(2-trifluoromethyl-phenyl)-1H-pyrrole-3-carboxylic acid (2-fluoro-5-trifluoromethyl-phenyl)-amide] | 1000 to 5000
Cc1cc(C(=O)NCCc2cccs2)c(C)n1-c1ccccc1C(F)(F)F [2,5-dimethyl-1-(2-trifluoromethyl-phenyl)-1H-pyrrole-3-carboxylic acid (2-thiophen-2-yl-ethyl)-amide] | 500 to 1000
Cc1cc(C(=O)NCCc2ccccc2Cl)c(C)n1-c1ccccc1C(F)(F)F [2,5-dimethyl-1-(2-trifluoromethyl-phenyl)-1H-pyrrole-3-carboxylic acid [2-(2-chloro-phenyl)-ethyl]-amide] | 500 to 1000
Cc1cc(C(=O)NCCc2cccc(Cl)c2)c(C)n1-c1ccccc1C(F)(F)F [2,5-dimethyl-1-(2-trifluoromethyl-phenyl)-1H-pyrrole-3-carboxylic acid [2-(3-chloro-phenyl)-ethyl]-amide] | 1000 to 5000
Cc1cc(C(=O)NCCc2ccccc2)c(C)n1-c1ccccc1C(F)(F)F [2,5-dimethyl-1-(2-trifluoromethyl-phenyl)-1H-pyrrole-3-carboxylic acid phenethyl-amide] | < 500
